The source of these data is patent US20240383910A1, “SMALL MOLECULE BTK DEGRADERS AND METHODS OF USE THEREOF” (Baylor College of Medicine, priority 2023, published 2024).

Type in all cases: cell-based
In test [1] the target is T1, BTK-nLuc fusion protein (Homo sapiens, UniProt Q06187+Q96SW2).
T1 construct: Addgene (vector) HsCD00514411; pLenti6.2-ccdB-Nanoluc 87078; host or cells: HEK-293T17
Kind of test: BTK-nLuc endpoint degradation assay in HEK-293T cells. The settings on record: HEK-293T cells stably expressing BTK-nLuc, 24 h. As to the method:
(§1) DD-03-171 is a known BTK degrader and used as a positive control. Panel f: HEK-293T cells stably expressing a BTK-nLuc fusion protein were treated with indicated compounds (same as in a-e) for 24 h. The BTK degradation was determined by evaluating luminescence signals of NanoLuc.
(§2) The nanoluc activity was determined using the furimazine substrate (Promega, Cat. No. N1110). Briefly, after 4 h incubation of indicated compounds, cells were directly lysed by addition of 100 μL of nanoluciferase detection solution, containing lysis buffer and furimazine (1/50 dilution). For the 24-hour treatment group, the old medium was replaced with 100 μL fresh opti-MEM, followed by the addition of equal volume of lysis buffer plus furimazine (1/50 dilution).

For test [2], the target named is T2, BTK-nLuc fusion protein (Homo sapiens, UniProt Q06187).
T2 construct: Addgene (vector) HsCD00514411; pLenti6.2-ccdB-Nanoluc 87078; host or cells: HEK-293T17
Described as above. The settings on record: HEK-293T cells stably expressing BTK-nLuc, 24 h. As for the experimental part:
as §1, §2

The target of another test is BTK (Homo sapiens, UniProt Q06187). Kind of test: Western blotting for BTK in Mino cells. The settings on record: 24 h, Western blot. The arrangement: host or cells: Mino. As for the experimental part:
Mino cells were seeded into the wells of six-well plates at the density of 5×10^5 cells per mL in 2 mL of complete RPMI-1640 culture medium. After overnight adaptation, cells were treated with serially diluted compounds (from 1,000-1.6 nM, 5-fold dilution) for 24 hours. After treatment, whole cell lysates for immunoblotting were prepared by pelleting Mino cells at 4° C. and 200×g for 5 minutes. The resulting cell pellets were washed once with ice-cold PBS and lysed in 1×RIPA lysis buffer (Alfa Aesar, Cat. No. J62524) supplemented with protease and phosphatase inhibitor cocktail (Thermo Fisher, Cat. No. 78430). Lysates were centrifuged at 15,000×g for 10 min at 4° C. and protein concentrations were assessed using BCA assay (Pierce, Cat. No. 23225). Same amounts of protein (30 μg) for each sample were loaded onto sodium dodecyl sulfate-polyacrylamide gel, separated by electrophoresis (Bio-Rad) at 120 V for 1.5 h and transferred to PVDF membrane using a Transblot Turbo system (Bio-Rad). After blocking for 1 h at room temperature in 1% BSA-TBST, the membranes were immunoblotted with the specified primary antibodies at the dilution of 1:1000 in TBST (Cell Signaling Technology: anti-BTK Cat. No. 8547, anti-IKZF1 Cat. No. 14859, anti-IKZF3 Cat. No. 15103, anti-β-actin Cat. No. 4570, Proteintech: anti-GSPT1, Cat. No. 10763-1-AP) overnight at 4° C. and the HRP-conjugated secondary antibodies (Cell Signaling, Cat. No. 7074, 1:1000 in TBST) for 1 h at room temperature. Imaging was performed using the ECL Prime chemiluminescent Western blot detection reagents (Kindle Biosciences, Cat. No. R1100) by visualization of the blots with an Imager (Kindle Biosciences, Cat. No. D1001). All Western blots were subsequently processed and quantified with Imager software ImageJ and protein level was normalized to the B-actin loading controls.
Background: A western blot detects proteins with antibodies after separation by electrophoresis.

BTK, sequence (Q06187 whole entry): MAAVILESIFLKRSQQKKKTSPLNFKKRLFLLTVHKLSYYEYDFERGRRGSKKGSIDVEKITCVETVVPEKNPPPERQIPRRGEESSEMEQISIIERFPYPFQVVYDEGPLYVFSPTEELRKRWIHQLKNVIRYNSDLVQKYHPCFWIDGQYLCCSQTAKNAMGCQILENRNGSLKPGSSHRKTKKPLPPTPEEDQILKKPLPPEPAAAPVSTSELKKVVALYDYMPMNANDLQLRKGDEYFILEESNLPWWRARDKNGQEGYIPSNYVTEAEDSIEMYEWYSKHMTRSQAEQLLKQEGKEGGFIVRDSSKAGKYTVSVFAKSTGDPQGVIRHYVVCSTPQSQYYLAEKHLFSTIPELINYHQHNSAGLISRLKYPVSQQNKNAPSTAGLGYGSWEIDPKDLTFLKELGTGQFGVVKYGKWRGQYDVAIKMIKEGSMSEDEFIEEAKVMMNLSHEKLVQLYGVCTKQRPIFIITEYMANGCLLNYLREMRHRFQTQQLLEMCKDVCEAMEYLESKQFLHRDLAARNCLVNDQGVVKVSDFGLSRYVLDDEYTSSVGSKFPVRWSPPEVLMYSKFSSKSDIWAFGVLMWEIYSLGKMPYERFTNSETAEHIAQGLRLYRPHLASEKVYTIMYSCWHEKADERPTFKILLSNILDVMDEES
T1 sequence (Q06187 whole entry, the tested form may be a part): as the sequence (Q06187 whole entry) above
T1 sequence (Q96SW2 whole entry, the tested form may be a part): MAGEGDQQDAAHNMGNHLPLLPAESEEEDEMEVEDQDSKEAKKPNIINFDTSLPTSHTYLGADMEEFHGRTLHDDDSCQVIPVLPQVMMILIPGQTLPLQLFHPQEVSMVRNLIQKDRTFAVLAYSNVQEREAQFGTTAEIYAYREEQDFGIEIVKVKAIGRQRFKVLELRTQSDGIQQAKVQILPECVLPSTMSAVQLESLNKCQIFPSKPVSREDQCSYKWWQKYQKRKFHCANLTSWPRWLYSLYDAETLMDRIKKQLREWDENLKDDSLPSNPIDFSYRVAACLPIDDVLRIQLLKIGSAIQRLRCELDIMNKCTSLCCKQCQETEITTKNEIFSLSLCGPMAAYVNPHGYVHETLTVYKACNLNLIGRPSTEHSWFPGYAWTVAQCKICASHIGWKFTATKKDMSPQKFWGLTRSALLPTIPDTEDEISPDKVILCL
T1 sequence (Q16531 whole entry partner, the tested form may be a part): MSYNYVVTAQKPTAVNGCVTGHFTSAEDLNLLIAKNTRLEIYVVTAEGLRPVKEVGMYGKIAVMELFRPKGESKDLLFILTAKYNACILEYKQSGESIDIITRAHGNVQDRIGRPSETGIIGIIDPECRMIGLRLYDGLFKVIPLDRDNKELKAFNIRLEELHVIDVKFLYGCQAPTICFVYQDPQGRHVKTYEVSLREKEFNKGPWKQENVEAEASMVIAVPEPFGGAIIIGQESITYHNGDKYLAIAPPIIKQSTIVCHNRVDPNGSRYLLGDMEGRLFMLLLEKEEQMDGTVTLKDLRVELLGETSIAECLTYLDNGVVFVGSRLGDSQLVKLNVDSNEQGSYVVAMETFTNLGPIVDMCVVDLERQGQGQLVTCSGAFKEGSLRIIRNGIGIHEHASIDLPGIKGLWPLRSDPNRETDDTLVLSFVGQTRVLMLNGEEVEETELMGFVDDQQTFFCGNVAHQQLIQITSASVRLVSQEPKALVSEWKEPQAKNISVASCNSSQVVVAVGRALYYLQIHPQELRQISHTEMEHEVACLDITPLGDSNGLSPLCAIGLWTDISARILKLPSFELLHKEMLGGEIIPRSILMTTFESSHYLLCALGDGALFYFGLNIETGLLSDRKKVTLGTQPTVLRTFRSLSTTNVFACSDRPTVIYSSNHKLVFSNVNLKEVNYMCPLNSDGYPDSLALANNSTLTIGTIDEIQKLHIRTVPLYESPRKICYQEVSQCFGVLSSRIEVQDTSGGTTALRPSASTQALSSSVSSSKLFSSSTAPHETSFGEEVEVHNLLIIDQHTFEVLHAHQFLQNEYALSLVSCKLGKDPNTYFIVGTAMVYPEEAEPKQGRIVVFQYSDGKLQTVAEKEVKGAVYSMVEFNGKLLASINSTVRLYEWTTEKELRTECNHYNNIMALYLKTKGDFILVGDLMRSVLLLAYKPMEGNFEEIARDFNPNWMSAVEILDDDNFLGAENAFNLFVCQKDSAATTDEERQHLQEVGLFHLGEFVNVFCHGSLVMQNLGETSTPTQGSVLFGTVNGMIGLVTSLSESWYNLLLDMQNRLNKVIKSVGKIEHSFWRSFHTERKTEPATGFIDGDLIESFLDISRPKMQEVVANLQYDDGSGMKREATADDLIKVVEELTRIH
T2 sequence (Q06187 whole entry, the tested form may be a part): as the sequence (Q06187 whole entry) above
T2 sequence (Q96SW2 whole entry, further chain, the tested form may be a part): as the sequence (Q96SW2 whole entry, the tested form may be a part) above
T2 sequence (Q16531 whole entry partner, the tested form may be a part): as the sequence (Q16531 whole entry partner, the tested form may be a part) above

Turning to `Cc1c(NC(=O)c2ccc(C(C)(C)C)cc2)cccc1-c1cn(C)c(=O)c(Nc2ccc(C(=O)N3CCN(CCCCCCNC(=O)CNc4cccc5c4C(=O)N(C4CCC(=O)NC4=O)C5=O)CC3)cc2)n1` (centres unmarked) [DD-03-171, reference compound], the DC50 at BTK-nLuc fusion protein [1] amounted to 25.9 nM; at BTK (read-out: BTK WB DC50), 0.9 nM. Further, the “BTK-nLuc Dmax” value at BTK-nLuc fusion protein [2] is given as 96%. Also, the “BTK WB Dmax” value at BTK came to 99%. In addition, the “BTK degradation (result in words)” value on BTK (up to 1000 nM) is listed as “potently induces BTK degradation”.
